The results in this text go back to patent US20080293689A1, “Compounds with Atypical Antipsychotic Activity” (SIGMA-TAU INDUSTRIE FARMACEUTICHE RIUNITE S.P.A., priority 2004, published 2008).

SMILES strings stand for the structures. “And” between values parts separate entries of the source, which are not always exact repeats. Equal values may be shown once.

The subject of data set [1] is avoidance response. The data set is described as follows: Active avoidance test. It counts as in vivo. Particulars: Rattus norvegicus; male Fischer 344 rats; oral, 60 minutes prior to the test; read-out: Inhibition of avoidance response (ED50). An excerpt: Effect of Treatment in Active Avoidance Test.
The administration of incremental doses of an antipsychotic drug in the rat causes inhibition of the active avoidance response and an increase in the number of escape responses without any increase in failures. This change in the animal's avoidance behaviour is characteristic of the effect of the administration of a compound endowed with anti-psychotic activity. Therefore, the evaluation of such behaviour enables us to detect and determine the antipsychotic capacity of a product.
Male Fischer 344 rats weighing 180 g (Charles River) were used.
To carry out the test to assess the avoidance behaviour of the rats a piece of equipment was used (Ugo Basile) consisting of a plastic cage divided into two compartments by a partition wall with an aperture in it allowing communication between the two sectors. Each of the two sectors can be illuminated by a 10 Watt lamp placed above a plexiglas lid covering the cage. A programming device allows the regulation of the duration and frequency of the unconditioned and discriminatory stimuli and a computerised system acquires the experimental data. […]
Before treatment with the study compounds, the animals were selected in relation to their ability to master the task. […] The results were expressed as means and standard errors.

Data set [2] relates to catalepsy. The data set is described as follows: in vivo. Particulars: male, Wistar, rat, po, Induction of catalepsy (ED50).
Description: Effect of Treatment in Catalepsy Test.
(§1) The test was carried out on male rats of the Wistar strain (n=7 animals); evaluation of catalepsy was done by means of a metal rod measuring 0.6 cm in diameter positioned at a distance of 10 cm from the work surface. […] Subsequent observations were recorded at 60, 90, 120, 180, 240, and 300 minutes after administration.
In data set [3] the target is T1, 5HT2a receptor (Rattus norvegicus, UniProt P14842).
T1 construct: using different cerebral areas (striate D1 and D2; prefrontal cortex 5HT2a); from tissue; host or cells: prefrontal cortex
Description: Radioligand binding to 5HT2a receptor (prefrontal cortex, 3H-ketanserin).
Description: (§2) For the D2 receptor ^3H-Spiperone (0.2 nM) was used and the non-specific binding was determined in the presence of 100 μM of (−)sulpiride. As regards the D3 receptor, the radioligand selected 3H-7-OH-DPAT was used at the concentration of 0.2 μM and the non-specific binding was obtained in the presence of dopamine 10 μM. Lastly, interaction with 5HT2a was evaluated using ^3H-ketanserin (0.7 μM) and the non-specific binding was determined in the presence of methysergide 1 μM.

The target of data set [4] is T2, cloned dopamine receptor subtype 3 (Rattus norvegicus, UniProt P19020).
T2 construct: purchased Signal Screen; host or cells: Sf9 cells
The data set is described as follows: Radioligand binding to D3 receptor (transfected Sf9 cell membranes, 3H-7-OH-DPAT).
Description: as §2

Data set [5] concerns the target D1 receptor (Rattus norvegicus, UniProt P18901).
Description: as §2
For data set [6], the system named is catalepsy. The settings on record: rat, in vivo, po, 100 mg/kg.
Description: Effect of Treatment in Catalepsy Test.
as §1

As usually defined, the ED50 is the dose that gives a 50% effect, or the effect in half of the subjects. The Ki is a measure of affinity in units of concentration, obtained from inhibition or displacement.

T1 sequence (P14842 whole entry): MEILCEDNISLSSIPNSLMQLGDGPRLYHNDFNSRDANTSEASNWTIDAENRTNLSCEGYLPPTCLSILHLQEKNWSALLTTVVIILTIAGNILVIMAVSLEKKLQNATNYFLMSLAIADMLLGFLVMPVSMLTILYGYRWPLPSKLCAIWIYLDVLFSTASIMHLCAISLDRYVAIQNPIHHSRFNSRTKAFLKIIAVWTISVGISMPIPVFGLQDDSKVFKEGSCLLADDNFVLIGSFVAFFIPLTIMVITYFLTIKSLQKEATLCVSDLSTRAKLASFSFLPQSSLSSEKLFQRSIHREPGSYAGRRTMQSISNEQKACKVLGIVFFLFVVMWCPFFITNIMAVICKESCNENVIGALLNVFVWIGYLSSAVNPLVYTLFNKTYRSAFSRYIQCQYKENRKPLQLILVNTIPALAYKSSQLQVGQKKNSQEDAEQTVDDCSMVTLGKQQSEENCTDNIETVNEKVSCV
Chain of D1 receptor (P18901 whole entry): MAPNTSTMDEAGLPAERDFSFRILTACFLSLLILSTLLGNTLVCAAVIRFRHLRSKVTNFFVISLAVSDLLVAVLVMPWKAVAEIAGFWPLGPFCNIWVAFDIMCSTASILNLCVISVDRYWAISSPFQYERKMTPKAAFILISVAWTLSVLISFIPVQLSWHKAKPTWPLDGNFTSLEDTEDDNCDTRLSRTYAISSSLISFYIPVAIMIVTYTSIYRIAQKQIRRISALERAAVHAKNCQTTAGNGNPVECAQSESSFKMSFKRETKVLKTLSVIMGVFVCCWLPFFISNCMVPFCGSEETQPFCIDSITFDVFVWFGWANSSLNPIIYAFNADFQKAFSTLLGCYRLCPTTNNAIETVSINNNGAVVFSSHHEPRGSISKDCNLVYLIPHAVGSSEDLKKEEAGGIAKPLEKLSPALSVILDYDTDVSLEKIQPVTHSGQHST
T2 sequence (P19020 whole entry): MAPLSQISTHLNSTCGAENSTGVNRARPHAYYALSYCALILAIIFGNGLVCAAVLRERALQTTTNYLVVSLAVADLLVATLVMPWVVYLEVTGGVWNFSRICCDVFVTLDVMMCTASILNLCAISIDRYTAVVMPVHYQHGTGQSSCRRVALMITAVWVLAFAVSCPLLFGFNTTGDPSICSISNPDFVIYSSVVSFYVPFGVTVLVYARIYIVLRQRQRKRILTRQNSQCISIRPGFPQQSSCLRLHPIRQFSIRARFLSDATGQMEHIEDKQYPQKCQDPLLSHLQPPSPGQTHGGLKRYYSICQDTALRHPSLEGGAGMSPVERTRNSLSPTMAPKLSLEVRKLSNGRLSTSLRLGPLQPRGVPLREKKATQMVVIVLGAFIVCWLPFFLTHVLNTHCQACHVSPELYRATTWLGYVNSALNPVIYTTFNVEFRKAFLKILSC

With `CN1CCN(C2=Nc3cc(Cl)ccc3Nc3ccccc32)CC1` [Clozapine, reference compound], the ED50 in data set [1] is 4.9 mg/kg and 15 µmol/kg; in data set [2], 100 mg/kg and 276 µmol/kg.
Turning to `CN1CCN(C2=Cc3ccccc3Cn3cccc32)CC1` [ST2329, 11-(4-Methylpiperazin-1-yl)-5H-pyrrolo[2,1-b][2]benzazepine], the “5HT2A pKi” value in data set [3] came out at 8.14. For the same compound, the “Log Y” value in data set [3] (from relative affinity for 5HT2, D2 and D1, classic >6.48, atypical <6.48) is given as 3.20. In addition, the Ki in data set [3] (prefrontal cortex, 3H-ketanserin) stood at 7.2 nM; in data set [4] it was 224 nM; in data set [5] (read-out: D1 (Ki: nM), striate, [3H]-SCH 23390) it was 125 nM. The ED50 in data set [1] is 0.56 mg/kg and 2 µmol/kg. Also, the “D1 pKi” value in data set [5] was 6.90. Also, the Presence of catalepsy entry in data set [6] is recorded as “no presence of catalepsy was detected”.
